Test results from patent US20230382925A1, “MODULATORS OF CYSTIC FIBROSIS TRANSMEMBRANE CONDUCTANCE REGULATOR” (VERTEX PHARMACEUTICALS INCORPORATED, priority 2020, published 2023).
pEC50: −log10 of the molar value. Values joined by “and” are separate entries in the source; they are usually repeats but may differ in a detail not shown here. Equal entries are not always repeated. Where two headings read alike, the source gives them in different places. One block for each compound: values may come before it.

Tests used:
[1] = amide bond, 13-membered ring, DMF
CFTR [2] = biological target: CFTR (Homo sapiens, UniProt P13569); test: Membrane Potential Dye, Enteroid Assay B; assay type: cell-based
Sequence of CFTR (Homo sapiens, UniProt P13569) (P13569 with tags, fused parts or gaps DEL508-508): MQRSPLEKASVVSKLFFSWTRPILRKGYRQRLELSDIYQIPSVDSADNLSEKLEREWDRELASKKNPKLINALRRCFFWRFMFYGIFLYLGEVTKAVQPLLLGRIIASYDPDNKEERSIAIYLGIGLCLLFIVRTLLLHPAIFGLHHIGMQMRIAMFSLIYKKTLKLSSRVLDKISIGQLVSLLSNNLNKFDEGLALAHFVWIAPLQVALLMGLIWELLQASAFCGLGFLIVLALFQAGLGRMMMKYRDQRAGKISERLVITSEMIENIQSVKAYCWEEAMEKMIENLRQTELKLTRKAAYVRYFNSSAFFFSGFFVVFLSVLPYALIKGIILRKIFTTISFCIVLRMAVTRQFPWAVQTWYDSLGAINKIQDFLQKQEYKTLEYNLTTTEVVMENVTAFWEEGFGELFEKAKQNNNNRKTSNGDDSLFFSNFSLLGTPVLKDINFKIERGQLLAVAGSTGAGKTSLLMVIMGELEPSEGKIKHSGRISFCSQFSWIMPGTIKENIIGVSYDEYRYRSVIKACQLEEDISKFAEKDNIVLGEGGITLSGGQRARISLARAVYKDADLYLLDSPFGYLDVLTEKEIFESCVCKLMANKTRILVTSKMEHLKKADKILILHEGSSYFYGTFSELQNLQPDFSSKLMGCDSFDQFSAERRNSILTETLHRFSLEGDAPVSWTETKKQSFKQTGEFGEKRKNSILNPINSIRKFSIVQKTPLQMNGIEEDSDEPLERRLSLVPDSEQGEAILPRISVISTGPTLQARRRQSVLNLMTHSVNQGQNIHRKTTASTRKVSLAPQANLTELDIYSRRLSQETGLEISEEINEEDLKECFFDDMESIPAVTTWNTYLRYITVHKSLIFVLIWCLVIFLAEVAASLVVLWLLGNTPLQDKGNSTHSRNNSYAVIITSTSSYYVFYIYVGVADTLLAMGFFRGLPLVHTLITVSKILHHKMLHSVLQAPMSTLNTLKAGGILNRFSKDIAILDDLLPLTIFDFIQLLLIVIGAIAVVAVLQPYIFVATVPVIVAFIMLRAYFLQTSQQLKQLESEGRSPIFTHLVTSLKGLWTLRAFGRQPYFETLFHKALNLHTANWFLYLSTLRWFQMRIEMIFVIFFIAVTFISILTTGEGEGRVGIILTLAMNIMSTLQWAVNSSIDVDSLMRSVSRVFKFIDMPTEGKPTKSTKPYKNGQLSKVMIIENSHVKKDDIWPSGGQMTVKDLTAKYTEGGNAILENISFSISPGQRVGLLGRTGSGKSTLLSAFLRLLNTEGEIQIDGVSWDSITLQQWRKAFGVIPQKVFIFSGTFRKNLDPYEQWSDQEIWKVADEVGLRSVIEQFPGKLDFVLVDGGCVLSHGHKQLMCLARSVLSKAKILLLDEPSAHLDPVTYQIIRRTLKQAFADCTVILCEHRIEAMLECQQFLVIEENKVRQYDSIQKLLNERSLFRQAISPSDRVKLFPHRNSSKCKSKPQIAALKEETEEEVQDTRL
Method in brief: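 Human intestinal enteroid cells exposed to compound 18-24 h at 37 °C, then loaded with methyl oxonol membrane-potential dye plus CaCC blockers. Chloride transport triggered in chloride-free buffer with 10 μM forskolin, 100 μM IBMX, 300 nM Compound III; fluorescence read 15 min, expressed as % of triple-corrector/potentiator combination control.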

CFTR [3] = biological target: T1, CFTR (Homo sapiens, UniProt P13569, DEL508-508); test: HBE assay: Ussing chamber assay of CFTR-mediated short-circuit currents (F508del/MF-HBE, with 1 μM Ivacaftor); assay type: cell-based; settings: F508del/MF-HBE cells, 18-24 hours, 20% human serum; for pEC50: range of concentrations with 1 μM Ivacaftor; for HBE Max Activity: with 1 μM Ivacaftor, compared to known Vertex corrector with 18 μM Tezacaftor and 1 μM Ivacaftor
T1 construct: human bronchial epithelial (HBE) cells derived from CF subjects heterozygous for F508del; endogenous in cells; host or cells: primary human bronchial epithelial cells from CF subjects (F508del/MF-HBE)
T1 sequence (P13569 with tags, fused parts or gaps DEL508-508): as above
Protocol: 1. Ussing Chamber Assay of CFTR-mediated short-circuit currents
Ussing chamber experiments were performed using human bronchial epithelial (HBE) cells derived from CF subjects heterozygous for F508del and a minimal function CFTR mutation (F508del/MF-HBE) and cultured as previously described (Neuberger T, Burton B, Clark H, Van Goor F Methods Mol Biol 2011:741:39-54). After four days the apical media was removed, and the cells were grown at an air liquid interface for >14 days prior to use.
To isolate the CFTR-mediated short-circuit (ISC) current, F508del/MF-HBE grown on Costar® Snapwell™ cell culture inserts were mounted in an Ussing chamber and the transepithelial ISC was measured under voltage-clamp recording conditions (Vhold=0 mV) at 37° C. The basolateral solution contained (in mM) 145 NaCl, 0.83 K2HPO4, 3.3 KH2PO4, 1.2 MgCl2, 1.2 CaCl2), 10 Glucose, 10 HEPES (pH adjusted to 7.4 with NaOH) and the apical solution contained (in mM) 145 NaGluconate, 1.2 MgCl2, 1.2 CaCl2), 10 glucose, 10 HEPES (pH adjusted to 7.4 with NaOH) and 30 μM amiloride to block the epithelial sodium channel. Forskolin (20 μM) was added to the apical surface to activate CFTR, followed by apical addition of a CFTR inhibitor cocktail consisting of BPO, GlyH-101, and CFTR inhibitor 172 (each at 20 μM final assay concentration) to specifically isolate CFTR currents. The CFTR-mediated ISC (μA/cm^2) for each condition was determined from the peak forskolin response to the steady-state current following inhibition.
2. Identification of Corrector Compounds
The activity of the CFTR corrector compounds on the CFTR-mediated ISC was determined in Ussing chamber studies as described above. The F508del/MF-HBE cell cultures were either incubated with the corrector compounds at a range of concentrations in combination with 1 μM Ivacaftor or were incubated with the corrector compounds at a single fixed concentration of 10 μM in combination with 1 μM Ivacaftor for 18-24 hours at 37° C. and in the presence of 20% human serum. The concentration of corrector compounds with 1 μM Ivacaftor during the 18-24 hours incubations was kept constant throughout the Ussing chamber measurement of the CFTR-mediated ISC to ensure compounds were present throughout the entire experiment.

[4] = Table 10, read-out: Ent. B EC50

SMILES: COC(=O)C1CC2(C1)CC(N1C(=O)c3cccc(c3)S(=O)(=O)Nc3nc(cc(-c4c(C)cccc4C)n3)OC[C@H]1CC1(C(F)(F)F)CC1)C2 (stereo partly drawn)
ring closure, yield after HPLC ([1]; from COC(=O)C1CC2(CC(N[C@@H](COc3cc(-c4c(C)cccc4C)nc(NS(=O)(=O)c4cccc(C(=O)O)c4)n3)CC3(C(F)(F)F)CC3)C2)C1, HATU/TEA, 25.0 °C, 16.0 h, 2 steps): 32%

SMILES: COC1C[C@@H]2CC(N3C(=O)c4cccc(c4)S(=O)(=O)Nc4nc(cc(-c5c(C)cccc5C)n4)OC[C@H]3CC(C)C)C[C@@H]2C1 (stereo partly drawn)
ring closure, yield after HPLC ([1]; from COC1C[C@H]2CC(N[C@@H](COc3cc(-c4c(C)cccc4C)nc(NS(=O)(=O)c4cccc(C(=O)O)c4)n3)CC(C)C)C[C@H]2C1, COMU/DIEA, 29.7 mM, 14.0 h): 30%

SMILES: Cc1cccc(C)c1-c1cc2cc(n1)NS(=O)(=O)c1cccc(c1)C(=O)N(C1CC3(CCN(C(=O)OC(C)(C)C)CC3)C1)[C@H](CC(C)C)CO2
ring closure, yield after HPLC ([1]; from Cc1cccc(C)c1-c1cc(OC[C@@H](CC(C)C)NC2CC3(CCN(C(=O)OC(C)(C)C)CC3)C2)cc(NS(=O)(=O)c2cccc(C(=O)O)c2)n1, HATU/DIEA, 34.7 mM, 14.0 h): 16%

SMILES: Cc1cccc(C)c1-c1cc2nc(n1)NS(=O)(=O)c1cccc(c1)C(=O)N(C1CC(C(=O)OC(C)(C)C)C1)[C@H](CC(C)C)CO2 (stereo partly drawn)
ring closure, yield after HPLC ([1]; from Cc1cccc(C)c1-c1cc(OC[C@@H](CC(C)C)NC2CC(C(=O)OC(C)(C)C)C2)nc(NS(=O)(=O)c2cccc(C(=O)O)c2)n1, HATU/DIEA, 16.0 h, 2 steps): 79%

SMILES: Cc1cccc(C)c1-c1cc2nc(n1)NS(=O)(=O)c1cccc(c1)C(=O)N(C1CC(CNC(=O)OC(C)(C)C)C1)[C@H](CC(C)C)CO2 (stereo partly drawn)
ring closure, yield after HPLC ([1]; from Cc1cccc(C)c1-c1cc(OC[C@@H](CC(C)C)NC2CC(CNC(=O)OC(C)(C)C)C2)nc(NS(=O)(=O)c2cccc(C(=O)O)c2)n1, HATU/DIEA, 7.0 h, 2 steps): 15% and 19%

SMILES: Cc1cccc(C)c1-c1cc2nc(n1)NS(=O)(=O)c1cccc(c1)C(=O)N(C1CC(CO)C1)[C@H](CC(C)C)CO2 (stereo partly drawn)
ring closure, yield after HPLC ([1]; from Cc1cccc(C)c1-c1cc(OC[C@@H](CC(C)C)NC2CC(CO)C2)nc(NS(=O)(=O)c2cccc(C(=O)O)c2)n1, HATU/DIPEA, 32.3 mM, 1.0 h): 11%

SMILES: Cc1cccc(C)c1-c1cc2nc(n1)NS(=O)(=O)c1cccc(c1)C(=O)N(C1CC(NC(=O)OC(C)(C)C)C1)[C@H](CC(C)C)CO2 (stereo partly drawn)
ring closure, yield after HPLC ([1]; from Cc1cccc(C)c1-c1cc(OC[C@@H](CC(C)C)NC2CC(NC(=O)OC(C)(C)C)C2)nc(NS(=O)(=O)c2cccc(C(=O)O)c2)n1, HATU/DIPEA, 22.4 mM, 6.0 h, 2 steps): 7% and 6%

SMILES: Cc1cccc(C)c1-c1cc2nc(n1)NS(=O)(=O)c1cccc(c1)C(=O)N(C1CC(OC(C)C)C1)[C@H](CC1(C(F)(F)F)CC1)CO2 (stereo partly drawn)
ring closure, yield after HPLC ([1]; from Cc1cccc(C)c1-c1cc(OC[C@@H](CC2(C(F)(F)F)CC2)NC2CC(OC(C)C)C2)nc(NS(=O)(=O)c2cccc(C(=O)O)c2)n1, HATU/TEA, 44.0 mM, 16.0 h): 18%

SMILES: Cc1cccc(C)c1-c1cc2nc(n1)NS(=O)(=O)c1cccc(c1)C(=O)N(C1CC3(CC3)C1)C(CC(F)(F)F)CO2 (stereo not drawn)
ring closure, yield after HPLC ([1]; from Cc1cccc(C)c1-c1cc(OCC(CC(F)(F)F)NC2CC3(CC3)C2)nc(NS(=O)(=O)c2cccc(C(=O)O)c2)n1, HATU/TEA, 18.3 mM, 18.0 h): 15%

SMILES: Cc1cccc(C)c1-c1cc2nc(n1)NS(=O)(=O)c1cccc(c1)C(=O)N(C1CCC1C1CC1)[C@H](CC(C)(C)C)CO2 (stereo partly drawn)
ring closure, yield after HPLC ([1]; from Cc1cccc(C)c1-c1cc(OC[C@@H](CC(C)(C)C)NC2CCC2C2CC2)nc(NS(=O)(=O)c2cccc(C(=O)O)c2)n1, CDMT/NMM, 25.0 °C, 2 steps): 2%

SMILES: Cc1cccc(C)c1-c1cc2nc(n1)NS(=O)(=O)c1cccc(c1)C(=O)N(C1CN(C(=O)OC(C)(C)C)C(C)(C)C1)[C@H](CC(C)C)CO2 (stereo partly drawn)
ring closure, yield after HPLC ([1]; from Cc1cccc(C)c1-c1cc(OC[C@@H](CC(C)C)NC2CN(C(=O)OC(C)(C)C)C(C)(C)C2)nc(NS(=O)(=O)c2cccc(C(=O)O)c2)n1, COMU/DIEA, 2 steps): 8% and 4%

SMILES: Cc1cccc(C)c1-c1cc2nc(n1)NS(=O)(=O)c1cccc(n1)C(=O)N(C1CC3(C1)CC(C(C)(C)O)C3)[C@H](CC(C)(C)C)CO2 (stereo partly drawn)
ring closure, yield after HPLC ([1]; from Cc1cccc(C)c1-c1cc(OC[C@@H](CC(C)(C)C)NC2CC3(C2)CC(C(C)(C)O)C3)nc(NS(=O)(=O)c2cccc(C(=O)O)n2)n1, HATU/DIEA, 26.7 mM, 25.0 °C, 17.0 h): 28%

Ent. B Max Activity (%) (CFTR [2]; Table 10): +++ (+++ is >60%)
pEC50 (CFTR [2]; [4]): > 6.00
SMILES: COCCn1cc(N2C(=O)c3cccc(c3)S(=O)(=O)Nc3nc(cc(-c4c(C)cccc4C)n3)OC[C@H]2CCC(C)C)cn1 [Compound 6, (11R)-6-(2,6-Dimethylphenyl)-11-isopentyl-12-[1-(2-methoxyethyl)pyrazol-4-yl]-2,2-dioxo-9-oxa-2λ^6-thia-3,5,12,19-tetrazatricyclo[12.3.1.14,8]nonadeca-1(18),4(19),5,7,14,16-hexaen-13-one]
ring closure, yield after HPLC ([1]; from COCCn1cc(N[C@H](CCC(C)C)COc2cc(-c3c(C)cccc3C)nc(NS(=O)(=O)c3cccc(C(=O)O)c3)n2)cn1, CDMT/NMM, 48.0 h, 2 steps): 16%

Ent. B Max Activity (%) (CFTR [2]; Table 10): +++ (+++ is >60%)
pEC50 (CFTR [2]; [4]): > 6.00
SMILES: Cc1cccc(C)c1-c1cc2nc(n1)NS(=O)(=O)c1cccc(c1)C(=O)N(c1cnn(C)c1)[C@H](CCC(C)C)CO2 [Compound 7, (11R)-6-(2,6-Dimethylphenyl)-11-isopentyl-12-(1-methylpyrazol-4-yl)-2,2-dioxo-9-oxa-2λ^6-thia-3,5,12,19-tetrazatricyclo[12.3.1.14,8]nonadeca-1(18),4(19),5,7,14,16-hexaen-13-one]
ring closure, yield after HPLC ([1]; from Cc1cccc(C)c1-c1cc(OC[C@@H](CCC(C)C)Nc2cnn(C)c2)nc(NS(=O)(=O)c2cccc(C(=O)O)c2)n1, CDMT/NMM, 48.0 h, 2 steps): 19%

Ent. B Max Activity (%) (CFTR [2]; Table 9): +++ (+++ is >60%)
pEC50 (CFTR [2]; Table 9, read-out: Ent. B EC50): > 6.00
SMILES: Cc1cc(F)cc(C)c1-c1cc2nc(n1)NS(=O)(=O)c1cccc(c1)C(=O)N(C1CC3(CC3)C1)[C@H](CC(C)C)CO2 [Compound 10, (11R)-6-(4-Fluoro-2,6-dimethyl-phenyl)-11-isobutyl-2,2-dioxo-12-spiro[2.3]hexan-5-yl-9-oxa-2λ^6-thia-3,5,12,19-tetrazatricyclo[12.3.1.14,8]nonadeca-1(18),4(19),5,7,14,16-hexaen-13-one]
ring closure, yield after HPLC ([1]; from Cc1cc(F)cc(C)c1-c1cc(OC[C@@H](CC(C)C)NC2CC3(CC3)C2)nc(NS(=O)(=O)c2cccc(C(=O)O)c2)n1, HATU/TEA, 53.7 mM, 25.0 °C, 4.0 h): 48%

pEC50 (CFTR [3]): 5.52 to 6.00
HBE Max Activity (CFTR [3]): +++ (+++ is >60%)
SMILES: Cc1cccc(C)c1-c1cc2nc(n1)NS(=O)(=O)c1cccc(c1)C(=O)N(c1cnn(CC(N)=O)c1)[C@H](CC(C)(C)C)CO2 [Compound 426]

pEC50 (CFTR [3]): > 6.00
HBE Max Activity (CFTR [3]): +++ (+++ is >60%)
SMILES: Cc1cccc(C)c1-c1cc2nc(n1)NS(=O)(=O)c1cccc(c1)C(=O)N(c1cnn(CC(=O)OC(C)(C)C)c1)[C@H](CC(C)(C)C)CO2 [Compound 427]

pEC50 (CFTR [3]): > 6.00
HBE Max Activity (CFTR [3]): +++ (+++ is >60%)
SMILES: Cc1cccc(C)c1-c1cc2nc(n1)NS(=O)(=O)c1cccc(c1)C(=O)N(c1cnn(CC(=O)OC(C)(C)C)c1)[C@H](CC(C)C)CO2 [Compound 429]

pEC50 (CFTR [3]): > 6.00
HBE Max Activity (CFTR [3]): +++ (+++ is >60%)
SMILES: Cc1cccc(C)c1-c1cc2nc(n1)NS(=O)(=O)c1cccc(c1)C(=O)N(C1CC3(CC(N4CCOCC4)C3)C1)[C@H](CC(C)(C)C)CO2 (stereo partly drawn) [Compound 433]

HBE Activity at 10 μM (CFTR [3]; single fixed concentration of 10 μM with 1 μM Ivacaftor): +++ (+++ is >60%)
SMILES: Cc1cccc(C)c1-c1cc2nc(n1)NS(=O)(=O)c1cccc(c1)C(=O)N(C1CC3(CCN(C)CC3)C1)[C@@H]1CN(C3CC4(CCCCC4)C3)C[C@H]1O2 (stereo partly drawn) [Compound 473]
